Reference: the supplement of paper PMC12669032

How the values were obtained:
Experiment in all cases: growth AUC relative to DMSO control (fraction); higher = more growth (less inhibition)
Conditions in all cases: 24 h
[1] = tested on: Roseburia intestinalis
Method: (§1)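 Validation screen: 11 independently purchased pesticides tested on 8 gut bacterial strains at 2.5–320 µM in mGAM, anaerobic, 37 °C, 24 h. Growth AUC normalised to DMSO controls, mean of 3 independent experiments.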

[2] = tested on: Lactobacillus gasseri
Method: as §1

[3] = tested on: Clostridium difficile
Method: as §1

[4] = tested on: Bacteroides uniformis
Method: as §1

[5] = tested on: Streptococcus salivarius
Method: as §1

[6] = tested on: Escherichia coli IAI1
Method: as §1

[7] = tested on: Eubacterium rectale
Method: as §1

[8] = tested on: Parabacteroides distasonis
Method: as §1

COC(=O)N(OC)c1ccccc1COc1ccn(-c2ccc(Cl)cc2)n1 [PYRACLOSTROBIN]
growth AUC
Conditions | [1] | [2] | [3] | [4] | [5] | [6] | [7] | [8]
2.5 µM | 0.955 | 1.06 | 1.03 | 1.01 | 1.11 | 1.02 | 1.17 | 0.922
5 µM | 0.923 | 1.01 | 1.01 | 0.994 | 1.09 | 1.02 | 1.12 | 0.798
10 µM | 0.957 | 0.997 | 1 | 0.955 | 1.07 | 1.01 | 1.18 | 0.705
20 µM | 0.859 | 0.955 | 1.01 | 0.988 | 1.12 | 1.01 | 1.16 | 0.626
40 µM | 0.975 | 0.989 | 1.03 | 0.926 | 1.08 | 1.01 | 1.18 | 0.401
80 µM | 0.919 | 0.914 | 1.04 | 0.914 | 1.02 | 0.999 | 1.13 | 0.26

O=C(Oc1ccccc1)n1c(C(F)(F)F)nc2cc(Cl)c(Cl)cc21 [FENAZAFLOR]
growth AUC
Conditions | [1] | [2] | [3] | [4] | [5] | [6] | [7] | [8]
2.5 µM | 1.05 | 1.06 | 0.824 | 0.972 | 1.07 | 0.97 | 0.987 | 0.939
5 µM | 0.968 | 0.99 | 0.854 | 0.914 | 0.876 | 0.837 | 0.875 | 0.6
10 µM | 0.887 | 0.837 | 0.595 | 0.686 | 0.658 | 0.679 | 0.642 | 0.314
20 µM | 0.582 | 0.448 | 0.705 | 0.492 | 0.513 | 0.617 | 0.407 | 0.174
40 µM | 0.22 | 0.168 | 0.00756 | 0.171 | 0.0266 | 0.383 | 0.255 | 0.0387
80 µM | 0.0682 | 0.0839 | 0.0273 | 0.00285 | 0.0113 | 0.00144 | 0.106 | 0.0173
160 µM | 0.0676 | 0.0514 | 0.0114 | 0.00332 | 0.00976 | 0.00384 | 0.0493 | 0.0144
320 µM | 0.0375 | 0.0326 | 0.0253 | 0.0184 | 0.0373 | 0.0222 | 0.106 | 0.0614

C=CCOC(Cn1ccnc1)c1ccc(Cl)cc1Cl.O=S(=O)(O)O (stereo unspecified) [IMAZALIL SULFATE]
growth AUC
Conditions | [1] | [2] | [3] | [4] | [5] | [6] | [7] | [8]
2.5 µM | 0.943 | 1.07 | 1.02 | 1.04 | 1.05 | 0.998 | 0.622 | 1.02
5 µM | 0.906 | 0.958 | 0.962 | 1 | 1.01 | 0.975 | 0.322 | 0.948
10 µM | 0.861 | 0.976 | 0.944 | 1.01 | 0.963 | 0.956 | 0.0607 | 0.856
20 µM | 0.459 | 0.92 | 1.01 | 0.971 | 0.978 | 0.96 | 0.0382 | 0.922
40 µM | 0.0225 | 0.946 | 0.915 | 0.976 | 0.961 | 0.942 | 0.0278 | 0.732
80 µM | 0.0276 | 0.881 | 0.797 | 0.928 | 0.944 | 0.961 | 0.014 | 0.587
160 µM | 0.0196 | 0.788 | 0.515 | 0.836 | 0.999 | 0.879 | 0.0363 | 0.145
320 µM | 0.0118 | 0.414 | 0.219 | 0.413 | 0.705 | 0.776 | 0.0159 | 0.0186
